Data taken from patent US12428408B2, “Fused heterocyclic mescaline derivatives” (Enveric Biosciences Canada Inc., priority 2022, dated 2025).
Like-named read-outs stand apart in the source and are kept apart here.

What was measured:
D3 (h) = target: T1, D3 (h) (Homo sapiens, UniProt P35462); assay: Competition assay to measure binding affinity at D3 receptor; conditions: test ligand 10 μM; [3H]methylspiperone […]
T1 construct: host or cells: CHO cells

MT1 (ML1A) (h) = target: T2, MT1 (ML1A) (h) (Homo sapiens, UniProt P48039); assay: Competition assay to measure binding affinity at MT1 receptor; conditions: test ligand 10 μM; [125I]2-iodomelatonin 0.01 nM
T2 construct: host or cells: CHO cells

D2 (h) = target: T3, D2 (h) (Homo sapiens, UniProt P14416); assay: Competition assay to measure binding affinity at D2L receptor; conditions: test ligand 10 μM; [3H]methylspiperone 0.3 nM
T3 construct: host or cells: HEK-293 cells

5-HT1B (h) = target: T4, 5-HT1B (h) (Homo sapiens, UniProt P28222); assay: Competition assay to measure binding affinity at 5-HT1B receptor; conditions: test ligand 10 μM; [3H]GR125743 1 nM
T4 construct: host or cells: Chem-1 (RBL) cells

5-HT2A receptor = 5-HT2A receptor (Homo sapiens, UniProt P28223); assay: 5-HT2A receptor radioligand competition assay (SPA)
[1] = target: T5, human serotonin transporter (SERT) (Homo sapiens, UniProt P31645); assay: biochemical; type: binding
T5 construct: purchased PerkinElmer RBHSTM400UA

alpha2A (h) = target: T6, alpha2A (h) (Homo sapiens, UniProt P08913); assay: Competition assay to measure binding affinity at alpha2A receptor; conditions: test ligand 10 μM; [3H]RX 821002 1 nM; read-out: α-2A, percent of control-specific binding
T6 construct: host or cells: CHO cells
T6 sequence (P08913 1-465): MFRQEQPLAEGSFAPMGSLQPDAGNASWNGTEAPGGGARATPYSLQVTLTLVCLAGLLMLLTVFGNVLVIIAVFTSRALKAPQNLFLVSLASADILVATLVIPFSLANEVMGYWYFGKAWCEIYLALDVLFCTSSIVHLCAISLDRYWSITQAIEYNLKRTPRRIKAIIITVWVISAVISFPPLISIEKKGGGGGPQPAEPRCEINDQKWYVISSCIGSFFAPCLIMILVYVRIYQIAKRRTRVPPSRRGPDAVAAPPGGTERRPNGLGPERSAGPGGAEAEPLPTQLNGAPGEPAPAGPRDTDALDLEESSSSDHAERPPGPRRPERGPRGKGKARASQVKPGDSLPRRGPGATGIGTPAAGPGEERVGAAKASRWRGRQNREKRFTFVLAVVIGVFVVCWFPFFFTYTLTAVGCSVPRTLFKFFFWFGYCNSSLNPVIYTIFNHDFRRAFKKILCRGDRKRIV

5-HT7 (h) = target: T7, 5-HT7 (h) (Homo sapiens, UniProt P34969); assay: Competition assay to measure binding affinity at 5-HT7 receptor; conditions: test ligand 10 μM; [3H]LSD 4 nM
T7 construct: host or cells: HEK-293 cells

5-HT1A receptor = target: T8, 5-HT1A receptor (Homo sapiens, UniProt P08908); assay: 5-HT1A receptor radioligand competition assay (SPA); type: binding
T8 construct: purchased Perkin Elmer 6110501400UA
T8 sequence (P08908 1-422): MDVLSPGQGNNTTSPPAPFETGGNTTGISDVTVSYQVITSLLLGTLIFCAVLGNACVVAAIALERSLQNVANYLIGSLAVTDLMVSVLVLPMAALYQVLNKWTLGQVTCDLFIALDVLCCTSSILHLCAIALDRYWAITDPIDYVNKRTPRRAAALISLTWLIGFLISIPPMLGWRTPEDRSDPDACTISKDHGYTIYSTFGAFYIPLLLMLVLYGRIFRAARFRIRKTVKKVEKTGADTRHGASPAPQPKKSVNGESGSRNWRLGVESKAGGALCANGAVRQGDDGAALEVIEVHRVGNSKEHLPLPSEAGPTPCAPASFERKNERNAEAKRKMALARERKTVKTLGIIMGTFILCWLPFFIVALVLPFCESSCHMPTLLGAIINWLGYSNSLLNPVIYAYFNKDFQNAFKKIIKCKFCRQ

5-HT2B (h) = target: T9, 5-HT2B (h) (Homo sapiens, UniProt P41595); assay: Competition assay to measure binding affinity at 5-HT2B receptor; conditions: test ligand 10 μM; [3H]mesulergine 2 nM
T9 construct: host or cells: CHO cells

NET (h) = target: T10, NET (h) (Homo sapiens, UniProt P23975); assay: Competition assay to measure binding affinity at norepinephrine transporter (NET); conditions: test ligand 10 μM; [3H]nisoxetine 1 nM
T10 construct: host or cells: CHO cells

DAT (h) = target: T11, DAT (h) (Homo sapiens, UniProt Q01959); assay: Competition assay to measure binding affinity at dopamine transporter (DAT); conditions: test ligand 10 μM; [3H]BTCP 4 nM
T11 construct: host or cells: CHO cells

5-HT1D (r) = target: T12, 5-HT1D (r) (Rattus norvegicus, UniProt P28565); assay: Competition assay to measure binding affinity at 5-HT1D receptor; conditions: test ligand 10 μM; [3H]serotonin 1 nM
T12 construct: host or cells: CHO cells

5-HT2C (h) = target: T13, 5-HT2C (h) (Homo sapiens, UniProt P28335); assay: Competition assay to measure binding affinity at 5-HT2C receptor; conditions: test ligand 10 μM; [125I](±)DOI 0.1 nM
T13 construct: host or cells: HEK-293 cells
T13 sequence (P28335 33-458): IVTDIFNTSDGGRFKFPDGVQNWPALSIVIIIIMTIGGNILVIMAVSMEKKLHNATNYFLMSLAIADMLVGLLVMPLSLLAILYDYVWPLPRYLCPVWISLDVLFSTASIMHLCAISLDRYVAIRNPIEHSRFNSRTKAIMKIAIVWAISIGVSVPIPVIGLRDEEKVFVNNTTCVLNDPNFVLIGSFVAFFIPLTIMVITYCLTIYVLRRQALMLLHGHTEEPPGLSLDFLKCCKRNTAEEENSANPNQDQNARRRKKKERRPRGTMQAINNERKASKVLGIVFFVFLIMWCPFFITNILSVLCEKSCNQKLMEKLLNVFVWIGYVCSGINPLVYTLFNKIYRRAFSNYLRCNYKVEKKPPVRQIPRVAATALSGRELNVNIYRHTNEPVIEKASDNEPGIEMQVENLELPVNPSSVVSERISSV

[2] = competition with 0.5 nM 8-hydroxy-DPAT [3H], test compound 3 nM to 1 mM, read-out: 5-HT1A, Ki

T1 sequence (P35462 whole entry): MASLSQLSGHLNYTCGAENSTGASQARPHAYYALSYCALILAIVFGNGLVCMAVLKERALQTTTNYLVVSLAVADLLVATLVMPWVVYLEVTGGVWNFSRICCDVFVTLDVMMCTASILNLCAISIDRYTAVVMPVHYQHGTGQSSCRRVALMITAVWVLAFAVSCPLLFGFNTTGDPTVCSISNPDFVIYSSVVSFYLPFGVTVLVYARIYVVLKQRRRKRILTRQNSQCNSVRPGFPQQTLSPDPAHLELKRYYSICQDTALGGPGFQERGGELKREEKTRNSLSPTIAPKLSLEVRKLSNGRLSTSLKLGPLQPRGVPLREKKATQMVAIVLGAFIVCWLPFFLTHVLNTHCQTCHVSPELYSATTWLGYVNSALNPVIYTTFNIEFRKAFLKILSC
Chain of 5-HT2A receptor (P28223 whole entry): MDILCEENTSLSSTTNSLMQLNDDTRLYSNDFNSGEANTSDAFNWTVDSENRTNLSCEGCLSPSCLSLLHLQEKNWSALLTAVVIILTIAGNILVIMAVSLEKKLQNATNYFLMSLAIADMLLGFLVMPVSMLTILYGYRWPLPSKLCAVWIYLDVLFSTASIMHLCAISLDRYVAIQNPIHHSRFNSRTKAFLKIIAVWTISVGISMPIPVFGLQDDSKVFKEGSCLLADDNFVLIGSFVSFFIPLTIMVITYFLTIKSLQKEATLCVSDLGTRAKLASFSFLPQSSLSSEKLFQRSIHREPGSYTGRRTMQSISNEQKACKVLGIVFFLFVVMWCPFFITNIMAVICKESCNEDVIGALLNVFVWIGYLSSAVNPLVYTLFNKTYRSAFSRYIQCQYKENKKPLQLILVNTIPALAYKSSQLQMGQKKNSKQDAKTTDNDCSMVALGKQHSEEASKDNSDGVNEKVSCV
T11 sequence (Q01959 whole entry): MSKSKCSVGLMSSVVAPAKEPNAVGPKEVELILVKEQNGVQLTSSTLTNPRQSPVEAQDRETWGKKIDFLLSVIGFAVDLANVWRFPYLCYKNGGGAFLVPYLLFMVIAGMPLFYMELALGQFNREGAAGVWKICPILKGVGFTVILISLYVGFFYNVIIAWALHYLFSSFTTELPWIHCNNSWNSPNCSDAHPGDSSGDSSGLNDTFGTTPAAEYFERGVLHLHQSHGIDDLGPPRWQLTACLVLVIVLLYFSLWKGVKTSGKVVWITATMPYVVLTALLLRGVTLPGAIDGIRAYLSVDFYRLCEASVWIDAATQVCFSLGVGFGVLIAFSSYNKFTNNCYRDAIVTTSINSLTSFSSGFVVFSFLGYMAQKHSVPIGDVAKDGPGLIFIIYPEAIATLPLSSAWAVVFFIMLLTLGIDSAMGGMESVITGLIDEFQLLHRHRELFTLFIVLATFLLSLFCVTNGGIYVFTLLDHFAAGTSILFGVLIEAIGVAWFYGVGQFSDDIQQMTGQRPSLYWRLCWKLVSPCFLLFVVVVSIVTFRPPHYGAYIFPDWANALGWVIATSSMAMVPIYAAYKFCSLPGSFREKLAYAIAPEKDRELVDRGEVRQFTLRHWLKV
T2 sequence (P48039 whole entry): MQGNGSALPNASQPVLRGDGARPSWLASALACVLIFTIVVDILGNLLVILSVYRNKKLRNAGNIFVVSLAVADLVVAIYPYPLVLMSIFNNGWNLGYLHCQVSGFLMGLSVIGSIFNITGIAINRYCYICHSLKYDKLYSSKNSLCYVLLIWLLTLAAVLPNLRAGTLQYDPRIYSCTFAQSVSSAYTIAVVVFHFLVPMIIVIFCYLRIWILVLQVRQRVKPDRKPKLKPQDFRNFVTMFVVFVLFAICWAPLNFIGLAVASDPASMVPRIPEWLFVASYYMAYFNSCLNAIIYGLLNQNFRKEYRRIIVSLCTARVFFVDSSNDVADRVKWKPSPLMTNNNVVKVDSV
T7 sequence (P34969 whole entry): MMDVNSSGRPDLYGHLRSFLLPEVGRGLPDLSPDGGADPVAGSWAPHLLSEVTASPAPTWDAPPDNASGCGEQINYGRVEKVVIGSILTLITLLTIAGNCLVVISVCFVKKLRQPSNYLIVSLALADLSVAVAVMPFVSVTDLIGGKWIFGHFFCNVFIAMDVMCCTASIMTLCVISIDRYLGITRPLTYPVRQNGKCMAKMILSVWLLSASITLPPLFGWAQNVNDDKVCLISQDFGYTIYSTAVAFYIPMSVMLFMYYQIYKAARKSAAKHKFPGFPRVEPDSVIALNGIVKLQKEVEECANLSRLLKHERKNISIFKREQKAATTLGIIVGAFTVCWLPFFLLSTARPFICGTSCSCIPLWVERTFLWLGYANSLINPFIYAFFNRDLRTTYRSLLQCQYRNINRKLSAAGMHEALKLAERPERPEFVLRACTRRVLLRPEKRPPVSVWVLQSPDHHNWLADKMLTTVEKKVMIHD
T4 sequence (P28222 whole entry): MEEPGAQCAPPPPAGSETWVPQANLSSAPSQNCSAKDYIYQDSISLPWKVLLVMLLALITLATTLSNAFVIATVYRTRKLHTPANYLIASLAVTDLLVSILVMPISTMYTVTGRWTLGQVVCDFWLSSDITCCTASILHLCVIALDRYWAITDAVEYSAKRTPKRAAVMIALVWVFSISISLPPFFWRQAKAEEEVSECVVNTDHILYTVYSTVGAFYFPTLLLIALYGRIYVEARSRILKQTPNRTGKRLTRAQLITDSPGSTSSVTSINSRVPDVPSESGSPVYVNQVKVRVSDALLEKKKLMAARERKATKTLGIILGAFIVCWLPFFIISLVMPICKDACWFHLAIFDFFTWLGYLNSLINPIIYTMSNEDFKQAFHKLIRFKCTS
T5 sequence (P31645 whole entry): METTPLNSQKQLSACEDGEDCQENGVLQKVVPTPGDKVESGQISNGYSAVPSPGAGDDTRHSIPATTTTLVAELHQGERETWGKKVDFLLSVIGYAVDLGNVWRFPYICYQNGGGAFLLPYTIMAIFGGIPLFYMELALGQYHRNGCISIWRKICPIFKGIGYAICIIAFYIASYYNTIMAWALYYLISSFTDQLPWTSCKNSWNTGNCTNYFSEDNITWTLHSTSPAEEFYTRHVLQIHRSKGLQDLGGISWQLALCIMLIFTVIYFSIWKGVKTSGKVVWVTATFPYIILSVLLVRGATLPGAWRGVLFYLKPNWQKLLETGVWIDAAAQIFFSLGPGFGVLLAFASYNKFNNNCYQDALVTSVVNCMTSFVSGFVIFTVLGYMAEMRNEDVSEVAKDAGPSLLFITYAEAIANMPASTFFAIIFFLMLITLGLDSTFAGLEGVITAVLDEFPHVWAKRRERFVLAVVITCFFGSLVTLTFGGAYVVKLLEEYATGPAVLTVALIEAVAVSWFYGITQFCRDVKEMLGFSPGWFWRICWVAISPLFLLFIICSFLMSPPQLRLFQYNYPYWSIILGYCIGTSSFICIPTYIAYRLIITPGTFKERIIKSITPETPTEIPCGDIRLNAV
T3 sequence (P14416 whole entry): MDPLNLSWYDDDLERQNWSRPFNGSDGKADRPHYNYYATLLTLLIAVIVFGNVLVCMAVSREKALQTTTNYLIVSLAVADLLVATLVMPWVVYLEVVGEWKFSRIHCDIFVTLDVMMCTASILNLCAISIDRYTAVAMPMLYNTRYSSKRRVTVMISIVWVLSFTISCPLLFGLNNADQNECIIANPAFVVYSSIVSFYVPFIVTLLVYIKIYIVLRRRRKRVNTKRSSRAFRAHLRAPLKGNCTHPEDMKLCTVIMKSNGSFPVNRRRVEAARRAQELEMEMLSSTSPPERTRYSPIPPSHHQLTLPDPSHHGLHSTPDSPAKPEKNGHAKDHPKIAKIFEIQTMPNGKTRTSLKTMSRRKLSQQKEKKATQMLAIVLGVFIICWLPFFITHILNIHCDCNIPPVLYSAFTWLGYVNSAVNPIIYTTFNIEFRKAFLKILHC
T10 sequence (P23975 whole entry): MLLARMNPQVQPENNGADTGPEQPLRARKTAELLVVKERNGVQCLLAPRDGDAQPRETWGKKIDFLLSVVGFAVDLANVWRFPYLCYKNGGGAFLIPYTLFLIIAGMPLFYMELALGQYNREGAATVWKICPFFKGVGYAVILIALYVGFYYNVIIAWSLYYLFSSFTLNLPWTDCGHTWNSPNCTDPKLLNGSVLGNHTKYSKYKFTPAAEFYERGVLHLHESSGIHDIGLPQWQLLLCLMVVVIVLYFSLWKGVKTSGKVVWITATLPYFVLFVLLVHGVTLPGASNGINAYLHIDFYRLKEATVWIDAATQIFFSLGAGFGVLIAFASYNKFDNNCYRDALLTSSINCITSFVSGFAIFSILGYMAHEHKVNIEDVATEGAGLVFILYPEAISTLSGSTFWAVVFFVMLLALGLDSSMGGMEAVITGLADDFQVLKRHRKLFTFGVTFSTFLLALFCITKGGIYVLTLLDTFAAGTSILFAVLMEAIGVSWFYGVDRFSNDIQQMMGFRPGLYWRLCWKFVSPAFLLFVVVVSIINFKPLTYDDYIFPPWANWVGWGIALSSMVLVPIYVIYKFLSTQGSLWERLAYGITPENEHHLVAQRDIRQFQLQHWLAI
T12 sequence (P28565 whole entry): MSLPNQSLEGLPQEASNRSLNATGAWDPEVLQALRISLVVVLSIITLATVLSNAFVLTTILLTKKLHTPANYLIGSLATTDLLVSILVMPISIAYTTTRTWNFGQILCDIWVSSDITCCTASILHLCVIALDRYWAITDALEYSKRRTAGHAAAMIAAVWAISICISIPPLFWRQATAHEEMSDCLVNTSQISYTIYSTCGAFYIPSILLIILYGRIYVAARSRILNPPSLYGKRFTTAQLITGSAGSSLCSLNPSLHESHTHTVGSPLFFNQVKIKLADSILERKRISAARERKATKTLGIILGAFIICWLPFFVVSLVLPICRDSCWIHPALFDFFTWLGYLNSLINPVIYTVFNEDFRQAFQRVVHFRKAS

| Structure (SMILES) | D3, percent of control-specific binding (D3 (h)) [%] | MT1, percent of control-specific binding (MT1 (ML1A) (h)) [%] | D2, percent of control-specific binding (D2 (h)) [%] | HT1B, percent of control-specific binding (5-HT1B (h)) [%] | Ki (5-HT2A receptor) [µM] | Ki [1] [µM] | inhibition at 10 µM (alpha2A (h)) [%] | HT7, percent of control-specific binding (5-HT7 (h)) [%] | Ki (5-HT1A receptor) [µM] | HT2B, percent of control-specific binding (5-HT2B (h)) [%] | NET, percent of control-specific binding (NET (h)) [%] | DAT, percent of control-specific binding (DAT (h)) [%] | HT1D, percent of control-specific binding (5-HT1D (r)) [%] | HT2C, percent of control-specific binding (5-HT2C (h)) [%] | Ki (5-HT1A receptor; [2]) [µM] | SERT binding, binding curve in words [1] |
| --- | --- | --- | --- | --- | --- | --- | --- | --- | --- | --- | --- | --- | --- | --- | --- | --- |
| CC(Cc1ccc2c(c1)OCCO2)NCc1ccccc1 (stereo not shown) [A(XXIII)] | 38 | 3 | 9 | 0 | 70 | 2.75 | 60 | 34 | 5.58 | 66 | 88 | 91 | 29 | 42 | – | – |
| N#CC(Cc1ccc2c(c1)OCO2)NC1CCC1 (stereo not shown) [A(XX)] | 0 | 14 | 24 | 0 | 42.1 | 286 | 3 | 26 | – | 53 | 1 | 39 | 14 | 41 | 123 | – |
| CC(Cc1ccc2c(c1)OCCO2)NCc1ccc2c(c1)OCCO2 (stereo not shown) [A(XIII)] | 54 | 12 | 28 | 11 | 102 | 2.91 | 77 | 52 | 1.5 | 85 | 50 | 90 | 38 | 34 | – | – |
| CC(Cc1ccc2c(c1)OCO2)NCc1cc2c(cc1Br)OCO2 (stereo not shown) [A(VI)] | 42 | 20 | 39 | 0 | 5.3 | 0.475 | 74 | 67 | 1.52 | 99 | 55 | 79 | 47 | 97 | – | binds SERT |
| CC(Cc1ccc2c(c1)OCO2)N1CC(NC(=O)OC(C)(C)C)C1 (stereo not shown) [A(IV)] | 84 | 3 | 37 | 15 | 15 | 49.8 | 75 | 79 | – | 94 | 15 | 20 | 13 | 69 | 1.6 | – |
| CC(C)(C)OC(=O)NC1CN(CCc2ccc3c(c2)OCO3)C1 [A(XV)] | 53 | 0 | 0 | 1 | 86 | 64.3 | 6 | 58 | – | 58 | 11 | 39 | 29 | 36 | 3.1 | – |
| CC(Cc1ccc2c(c1)OCCO2)NCc1cc2c(cc1Br)OCCO2 (stereo not shown) [A(XI)] | 36 | 15 | 40 | 7 | 7 | 0.191 | 92 | 62 | 0.507 | 94 | 64 | 47 | 31 | 63 | – | – |
| COc1cc2c(cc1CC(=O)N1CCCC1)OCO2 [A(XXI)] | 7 | 7 | 0 | 0 | 338 | 847 | 0 | 20 | – | 33 | 0 | 29 | 14 | 32 | 71.3 | – |
| O=C(Cc1ccc2c(c1)OC(F)(F)O2)N1CCCC1 [A(XXVII)] | 0 | 2 | 0 | 0 | – | 634 | 0 | 0 | – | 5 | 15 | 5 | 2 | 9 | > 1000 | – |
| O=C(Cc1c(Br)ccc2c1OCO2)N1CCCC1 [A(XXVI)] | 0 | 30 | 0 | 0 | 31 | – | 0 | 0 | – | 1 | 0 | 0 | 0 | 1 | 44.4 | – |
